The test system of series [1] is RAW264.7. The experiment in a line: Inhibition of LPS-induced NO production in mouse RAW264.7 cells after 24 hrs by Griess reaction. The format is functional, cell-based. The settings on record: RAW264.7, 24 h. A general note: Nitrite, measured by Griess reagent, commonly stands in for NO production.
In series [2] the test system is RAW264.7. The experiment in a line: Cytotoxicity against mouse RAW264.7 cells after 24 hrs. The format is cell-based. The settings on record: raw264.7, 24 h.

The source of these data is ChEMBL document CHEMBL2203236, “New monoterpene glycosides from Paeonia suffruticosa Andrews and their inhibition on NO production in LPS-induced RAW 264.7 cells” (Bioorg Med Chem Lett, 2012).

SMILES strings stand for the structures.

In the case of `CO[C@H]1O[C@@]2(C)CC(=O)[C@H]3C[C@]2(O[C@@H]2O[C@H](COC(=O)c4ccccc4)[C@@H](O)[C@H](O)[C@H]2O)[C@]13COC(=O)c1ccccc1` [PAEONIDANIN A], the IC50 – broadly, the concentration needed to halve the response being measured – with RAW264.7 [1] is greater than 100 µM. The Activity result in the series with RAW264.7 [2] is “Non-toxic”.
`CCCCO[C@]12C[C@]3(C)O[C@H](O1)[C@]1(COC(=O)c4ccc(O)cc4)[C@H]2C[C@@]13O[C@@H]1O[C@H](CO)[C@@H](O)[C@H](O)[C@H]1O` showed an IC50 with RAW264.7 [1] greater than 100 µM. In addition, the Activity entry in the series with RAW264.7 [2] is recorded as “Non-toxic”.
The molecule `CCCCO[C@]12C[C@]3(C)OC(O1)[C@]1(COC(=O)c4ccccc4)[C@@H]2C[C@@]31O[C@@H]1O[C@H](CO)[C@@H](O)[C@H](O)[C@H]1O` gave an IC50 in the series on RAW264.7 [1] greater than 100 µM. In addition, in the series on RAW264.7 [2], the Activity result is given as “Non-toxic”.
For the molecule `CO[C@]12C[C@]3(C)O[C@H](O1)[C@]1(COC(=O)c4ccc(O)cc4)[C@H]2C[C@@]13O[C@@H]1O[C@H](COC(=O)c2cc(O)c(O)c(O)c2)[C@@H](O)[C@H](O)[C@H]1O`, the IC50 with RAW264.7 [1] is greater than 100 µM. For the same molecule, the Activity result in the series with RAW264.7 [2] is on record as “Non-toxic”.
For the molecule `C[C@@]12C[C@@]3(O)O[C@@H](O1)[C@]1(COC(=O)c4ccccc4)[C@H]3C[C@@]12O[C@@H]1O[C@H](CO)[C@@H](O)[C@H](O)[C@H]1O` [PAEONIFLORIN], in the series on RAW264.7 [1], the half-maximal inhibitory concentration (IC50) was greater than 100 µM. Further, the Activity entry with RAW264.7 [2] is given as “Non-toxic”.
In the series with RAW264.7 [1], `COc1cc(C(=O)OC[C@H]2O[C@@H](O[C@]34C[C@@H]5[C@@]3(COC(=O)c3ccccc3)[C@H]3O[C@]5(O)C[C@]4(C)O3)[C@H](O)[C@@H](O)[C@@H]2O)ccc1O` [MUDANPIOSIDE J] came in with an IC50 greater than 100 µM. Besides, the Activity result in the series with RAW264.7 [2] is recorded as “Non-toxic”.
`C[C@@]12C[C@@]3(O)O[C@@H](O1)[C@]1(COC(=O)c4ccc(O)cc4)[C@H]3C[C@@]12O[C@@H]1O[C@H](COC(=O)c2cc(O)c(O)c(O)c2)[C@@H](O)[C@H](O)[C@H]1O` [GALLOYLOXYPAEONIFLORIN] displayed an IC50 in the series on RAW264.7 [1] greater than 100 µM. The Activity result in the series on RAW264.7 [2] is on record as “Non-toxic”.
Turning to `CO[C@]12C[C@]3(C)O[C@H](O1)[C@]1(COC(=O)c4ccccc4)[C@@H]2C[C@]13O[C@@H]1O[C@H](CO)[C@@H](O)[C@H](O)[C@H]1O`, the IC50 in the series on RAW264.7 [1] is greater than 100 µM. Besides, in the series on RAW264.7 [2], the Activity result was “Non-toxic”.
Regarding `CO[C@@H]1O[C@@]2(C)CC(=O)[C@@H]3C[C@@]2(O[C@@H]2O[C@H](CO)[C@@H](O)[C@H](O)[C@H]2O)[C@]13COC(=O)c1ccc(O)cc1`, the Activity entry in the series with RAW264.7 [2] was “Non-toxic”.
Consider `CO[C@H]1O[C@@]2(C)CC(=O)[C@@H]3C[C@@]2(O[C@@H]2O[C@H](CO)[C@@H](O)[C@H](O)[C@H]2O)[C@]13COC(=O)c1ccc(O)cc1` [OXYPAEONIDANIN], for which 90.9 µM corresponded to half-maximal inhibition in the series with RAW264.7 [1] (IC50). For the same molecule, the Activity entry in the series with RAW264.7 [2] is “Non-toxic”.
Take `COc1ccc(C(=O)OC[C@]23[C@H]4O[C@]5(O)C[C@](C)(O4)[C@@]2(O[C@@H]2O[C@H](CO)[C@@H](O)[C@H](O)[C@H]2O)C[C@H]35)cc1` [MUDANPIOSIDE D]: the IC50 in the series with RAW264.7 [1] is greater than 100 µM. In the series with RAW264.7 [2], the Activity result is on record as “Non-toxic”.
In the series on RAW264.7 [1], `COc1ccc(C(=O)OC[C@H]2O[C@@H](O[C@]34C[C@@H]5[C@@]3(COC(=O)c3ccc(O)cc3)[C@H]3O[C@]5(O)C[C@]4(C)O3)[C@H](O)[C@@H](O)[C@@H]2O)cc1` [MOUDANPIOSIDE B] displayed an IC50 greater than 100 µM. In the series on RAW264.7 [2], the Activity result is “Non-toxic”.
`CO[C@]12C[C@]3(C)O[C@H](O1)[C@]1(COC(=O)c4ccc(O)cc4)[C@H]2C[C@@]13O[C@@H]1O[C@H](CO)[C@@H](O)[C@H](O)[C@H]1O` registered an IC50 in the series on RAW264.7 [1] greater than 100 µM. Besides, the Activity result in the series on RAW264.7 [2] is “Non-toxic”.
Consider `C[C@@]12C[C@@]3(O)O[C@@H](O1)[C@]1(CO)[C@H]3C[C@@]12O[C@@H]1O[C@H](CO)[C@@H](O)[C@H](O)[C@H]1O`, for which, in the series on RAW264.7 [1], the midpoint of inhibition, the IC50, lay at 74.2 µM. Further, the Activity entry in the series with RAW264.7 [2] was “Non-toxic”.
Take `COc1cc(C(=O)OC[C@H]2O[C@@H](O[C@@]34C[C@H]5[C@@]3(CO)[C@H]3O[C@]5(O)C[C@]4(C)O3)[C@H](O)[C@@H](O)[C@@H]2O)ccc1O` [MUDANPIOSIDE E]: the IC50 with RAW264.7 [1] was greater than 100 µM. For the same molecule, in the series with RAW264.7 [2], the Activity entry is reported as “Non-toxic”.
`C[C@@]12CC(=O)[C@H]3C[C@]1(O)O[C@H](O2)[C@@H]3COC(=O)c1ccccc1` [PAEONIFLORIGENONE] had an IC50 in the series with RAW264.7 [1] of 6.87 µM. The Activity result in the series with RAW264.7 [2] is given as “Non-toxic”.
For `CC1=CC(=O)[C@@H]2C[C@@]1(O[C@@H]1O[C@H](CO)[C@@H](O)[C@H](O)[C@H]1O)[C@@]2(C)CO` [MOUDANPIOSIDE F], in that order: 12.4 µM and “Non-toxic”.
For `CCCCO[C@H]1O[C@@]2(C)CC(=O)[C@@H]3C[C@@]2(O[C@@H]2O[C@H](CO)[C@@H](O)[C@H](O)[C@H]2O)[C@]13COC(=O)c1ccccc1`, in that order: greater than 100 µM and “Non-toxic”.
Take `C[C@@]12C[C@@]3(O)O[C@@H](O1)[C@]1(COC(=O)c4ccccc4)[C@@H]3C[C@]12O[C@@H]1O[C@H](COC(=O)c2cc(O)c(O)c(O)c2)[C@@H](O)[C@H](O)[C@H]1O` [GALLOYLPAEONIFLORIN]: it took 36.1 µM to reach half-maximal inhibition in the series with RAW264.7 [1] (IC50). For the same molecule, the Activity entry in the series with RAW264.7 [2] is reported as “Non-toxic”.
In the case of `C[C@@]12C[C@@]3(O)O[C@@H](O1)[C@]1(COC(=O)c4ccccc4)[C@H]3C[C@@]12O[C@@H]1O[C@H](COC(=O)c2ccccc2)[C@@H](O[C@@H]2O[C@H](CO)[C@@H](O)[C@H](O)[C@H]2O)[C@H](O)[C@H]1O` [PAEONIFLORIN B], 31.2 µM corresponded to half-maximal inhibition in the series on RAW264.7 [1] (IC50). Besides, the Activity entry in the series with RAW264.7 [2] is recorded as “Non-toxic”.
The molecule `C[C@@]12C[C@@]3(O)O[C@@H](O1)[C@]1(COC(=O)c4ccc(O)cc4)[C@H]3C[C@@]12O[C@@H]1O[C@H](COC(=O)c2ccc(O)cc2)[C@@H](O)[C@H](O)[C@H]1O` [MUDANPIOSIDE H] had an IC50 in the series with RAW264.7 [1] greater than 100 µM. Also, the Activity entry in the series on RAW264.7 [2] was “Non-toxic”.
`C[C@@]12C[C@@]3(O)O[C@@H](O1)[C@]1(COC(=O)c4ccc(O)cc4)[C@H]3C[C@@]12O[C@@H]1O[C@H](CO)[C@@H](O)[C@H](O)[C@H]1O` [OXYPAEONIFLORIN]: the Activity result in the series on RAW264.7 [2] is “Non-toxic”.
Molecule `C[C@@]12C[C@@]3(O)O[C@@H](O1)[C@]1(COC(=O)c4ccccc4)[C@@H]3C[C@]12O[C@@H]1O[C@H](COC(=O)c2ccccc2)[C@@H](O)[C@H](O)[C@H]1O` [BENZOYLPAEONIFLORIN] had an IC50 in the series with RAW264.7 [1] greater than 100 µM. For the same molecule, in the series on RAW264.7 [2], the Activity result is listed as “Non-toxic”.
For `C[C@@]12C[C@@]3(O)O[C@@H](O1)[C@]1(COC(=O)c4ccc(O)cc4)[C@@H]3C[C@]12O[C@@H]1O[C@H](CO)[C@@H](O)[C@H](O)[C@H]1O` [OXYPAEONIFLORIN], the IC50 in the series on RAW264.7 [1] is greater than 100 µM.
`CCCCO[C@H]1O[C@@]2(C)CC(=O)[C@@H]3C[C@@]2(O[C@@H]2O[C@H](CO)[C@@H](O)[C@H](O)[C@H]2O)[C@]13COC(=O)c1ccc(O)cc1`: the IC50 in the series on RAW264.7 [1] is greater than 100 µM. In addition, the Activity result with RAW264.7 [2] is recorded as “Non-toxic”.
In turn, `C[C@@]12C[C@@]3(OS(=O)O)O[C@@H](O1)[C@]1(COC(=O)c4ccc(O)cc4)[C@H]3C[C@@]12O[C@@H]1O[C@H](CO)[C@@H](O)[C@H](O)[C@H]1O` [OXYPAEONIFLORIN SULFONATE] gave an IC50 in the series on RAW264.7 [1] greater than 100 µM. For the same molecule, the Activity result with RAW264.7 [2] is “Non-toxic”.
For `CO[C@]12C[C@]3(C)O[C@H](O1)[C@]1(COC(=O)c4ccccc4)[C@@H]2C[C@]13O[C@@H]1O[C@H](COC(=O)c2ccccc2)[C@@H](O)[C@H](O)[C@H]1O`, in that order: 41.9 µM and “Non-toxic”.
